Measured values taken from ChEMBL document CHEMBL1143273, “Structure-based hybridization of the bioactive natural products rhizonin A and ternatin leading to a selective fat-accumulation inhibitor against 3T3-L1 adipocytes” (Bioorg Med Chem Lett, 2009).
Non-standard residues stand in square brackets, D forms with d. Residues, ends and D or L forms follow the SMILES beside them. d(aIle) = CC[C@H](C)[C@@H](N)C(=O)O; NMeF = CN[C@@H](Cc1ccccc1)C(=O)O; dNMeF = CN[C@H](Cc1ccccc1)C(=O)O; NMeA = CN[C@@H](C)C(=O)O

Key:
3T3-L1 [1] = assay: Inhibition of fat-accumulation in mouse 3T3L1 cells; format: functional, cell-based
3T3-L1 [2] = assay: Cytotoxicity against mouse 3T3L1 cells; format: cell-based
3T3-L1 [3] = assay: Selectivity index, ratio of IC50 for mouse 3T3L1 cells to IC50 for fat-accumulation in mouse 3T3L1 cells; format: functional
3T3-L1 [4] = assay: Cytotoxicity against mouse 3T3L1 cells at 62 uM; format: cell-based; details: 3t3-l1, 62 µM

With `CC[C@H](C)[C@H]1NC(=O)[C@@H](Cc2ccccc2)N(C)C(=O)[C@H](C)N(C)C(=O)[C@H](CC(C)C)NC(=O)[C@H](Cc2ccccc2)N(C)C(=O)[C@H](C(C)C)NC(=O)[C@@H](C(C)C)NC1=O` (cyclo(L[NMeA][dNMeF][d(aIle)][dV]V[NMeF])) the IC50 (3T3-L1 [1]) was 42 µM, the IC50 (3T3-L1 [2]) was > 240 µM and the “Ratio IC50” value (3T3-L1 [3]) was >12.3.

For `CC[C@H](C)[C@H]1NC(=O)[C@@H](Cc2ccoc2)N(C)C(=O)[C@H](C)N(C)C(=O)[C@H](CC(C)C)NC(=O)[C@H](Cc2ccoc2)N(C)C(=O)[C@H](C(C)C)NC(=O)[C@@H](C(C)C)NC1=O` [RHIZONIN A], the IC50 (3T3-L1 [1]) was 55 µM, the Activity (3T3-L1 [4]) was 70% and the IC50 (3T3-L1 [2]) was 62 µM. The “Ratio IC50” value (3T3-L1 [3]) was 1.
